Assay results taken from PubChem BioAssay AID743395 (Broad Institute, 2014).

System: HepG2 viability, CellTiter-Glo ATP luminescence, 72 h
Test: viability loss in human hepatoma cells – cell-based, CellTiter-Glo luminescence, cherry-pick, set 2, cytotoxicity control, dose response (AID 743395)

SMILES | AC35 [µM]
Cc1ccc(-c2csc(Nc3ccccn3)n2)cc1 | 13
COC(=O)C1=CN(c2ccc(OC)cc2OC)C(N)=C(C#N)C1c1ccccc1F (stereo not drawn) | 6.17
COc1ccc(Nc2nc3cc(-c4sccc4C)sc3c(=O)n2C)cc1OC | 5.88
Cc1ccc(-c2ccc([C@H]3[C@@H](CO)N4CCCCN(C(=O)Nc5cccc(F)c5)C[C@H]34)cc2)cc1 | 11
COc1cc(OC)c2c(-c3cccc(-c4cccc(N)c4)c3)cc(=O)oc2c1 | 13.4
COc1ccc(OC)c(-c2cnc(OC(C)(C)C)nc2OC(C)(C)C)c1 | 19.3
Cc1cccc(Nc2nc(N)nc(-c3oc4ccccc4c3C)n2)c1 | 15.4
COc1ccc([C@H]2CC(=O)C=C(c3c(OC)cccc3OC)C2)cc1 | 3.37
CCOC(=O)c1c(NC(=O)C2c3ccccc3Oc3ccccc32)sc(C(C)=O)c1C | 17.6
COc1ccc(CCNc2ncnc3c2oc2ccccc23)cc1OC | 11.3
O=C(c1cccc(S(=O)(=O)N2CCN(c3ccc(F)cc3)CC2)c1)N1CCCC(C(F)(F)F)C1 (stereo not drawn) | 9.64
CC(C)(C)c1cc(C(=O)NN)n(Cc2ccc(Cl)cc2Cl)n1 | 18.7
C[C@@H]1CN([C@H](C)CO)C(=O)c2cc(NS(=O)(=O)c3ccc(Cl)cc3)ccc2O[C@@H]1CN(C)Cc1ccc(-c2ccccc2)cc1 | 16.8
C[C@@H]1CN([C@@H](C)CO)C(=O)Cc2cc(NC(=O)Nc3cccc4ccccc34)ccc2O[C@@H]1CN(C)Cc1ccc(Cl)c(Cl)c1 | 14.5
COc1ccc(S(=O)(=O)N2CC[C@@H]3[C@H](CO)N(C)c4ccc(-c5ccc(F)cc5)cc4[C@@H]32)cc1 | 2.21
C[C@H](CO)N1C[C@H](C)[C@H](CN(C)C(=O)NC2CCCCC2)Oc2cc(C#Cc3cccc(F)c3)ccc2S1(=O)=O | 10.9
O=C(N/N=C/c1cc(Br)cc(Cl)c1O)c1ccc2c(c1)OCO2 | 10.6
O=C1/C(=C\c2ccc(O)cc2)SC(=S)N1Cc1ccccc1 | 17.3
Cn1c(C(=O)c2ccccc2[N+](=O)[O-])nc2ccccc21 | 14.3
O=C(c1cc(-c2ccncc2)nc2c(Cl)cccc12)N1CCN(c2ccccc2F)CC1 | 8.73
COc1cc(OC)cc(-c2cc3ccc(OC)cc3cn2)c1 | 4.68
COc1ccc(S(=O)(=O)N2CC[C@@H]3[C@@H](CO)Nc4ccc(-c5cccc(C#N)c5)cc4[C@@H]32)cc1 | 14
Cc1ccc(N(C)S(=O)(=O)c2ccc(-c3cnc(C4CC4)o3)cc2)cc1 | 8.88
O=C(O)c1ccccc1-c1c2cc(I)c(=O)c(I)c-2oc2c(I)c(O)c(I)cc12 | 8.34
CC(C)C[C@H](NC(=O)c1nc[nH]c1C(=O)N1CCN(C(=O)OC(C)(C)C)CC1)C(=O)OC(C)(C)C | 14.6
COc1cc2c(c(Br)c1N)-c1cc(Br)c(N)cc1C2=O | 0.431

SMILES | AC35 [µM]
COc1ccc([C@H]2CC(=O)C=C(c3ccc(OC)cc3OC)C2)cc1 | 7.54
O=c1ccc2[n+]([O-])c3ccc(O)cc3oc-2c1 | 13.2
Oc1ccc2ccccc2c1N=Nc1nccs1 | 11.3
CC1OC(OC2CC(O)C3(CO)C4C(O)CC5(C)C(C6=CC(=O)OC6)CCC5(O)C4CCC3(O)C2)C(O)C(O)C1O (stereo not drawn) | 0.201
COc1cccc2c1C(=O)c1c(O)c3c(c(O)c1C2=O)CC(O)(C(=O)CO)CC3OC1CC(N(C)C)C(O)C(C)O1 (stereo not drawn) | 0.0659
COc1ccc(C2=Nn3c(nnc3-c3ccccc3F)SC2)cc1OC1CCOC1 (stereo not drawn) | 13.2
O=C(N=Nc1c(O)[nH]c2ccc(Br)cc12)c1ccccc1-n1cccc1 | 13.1
O=C(c1cccc(F)c1)N1CC(=O)N2[C@@H](CO)[C@@H](c3ccc(C#Cc4ccc(F)cc4)cc3)[C@@H]2C1 | 17.9
COc1ccc2c3c([nH]c2c1)[C@H](CO)N(S(C)(=O)=O)CC31CCN(Cc2cccc(F)c2)CC1 | 5.92
COc1ccc(/C=N/NC(=S)Nc2ccccc2[N+](=O)[O-])cc1O | 14.4
COc1ccccc1N1CCN(C(=O)c2ccc(-c3ccc(Cl)cc3)o2)CC1 | 3.02
COc1ccc(S(=O)(=O)NCc2ccccn2)cc1NC(=O)c1ccccc1F | 18.5
COc1ccc(Nc2nc(-c3sc(C)nc3C)cs2)c(OC)c1 | 10
C/C(=N\NC(=O)c1cc(-c2cccs2)nc2ccccc12)c1ccccn1 | 1.63
CC(C)(C)c1ccc(OCC(=O)Nc2ccc3c4c(cccc24)C(=O)NC3=O)cc1 | 18.5
Cc1ccc(Nc2nc(-c3sc(C)nc3C)cs2)cc1 | 3.7
CCCCn1c(CN2CCN(c3cccc(Cl)c3)CC2)nc2c1c(=O)[nH]c(=O)n2C | 12.3
N#C/C(=C/c1ccc(N2CCCCC2)o1)C(=O)Nc1ccc2ccccc2c1 | 21.1
O[Si](CCCN1CCCCC1)(c1ccc(F)cc1)C1CCCCC1 (stereo not drawn) | 10.3
COc1ccc(NC(=O)Nc2ccc3c(c2)C(=O)N([C@H](C)CO)C[C@@H](C)[C@H](CN(C)Cc2ccc(C(F)(F)F)cc2)OCCCC[C@H](C)O3)cc1 | 13.9
CCOc1ccc(C)cc1S(=O)(=O)n1cnc2ccccc21 | 11.7
COc1ccc(C2=Nn3c(nnc3-c3ccccc3F)SC2)cc1OC1CCCC1 | 11.1
CCN(Cc1ccccc1)c1ccc(/C=N/N=C(N)N)cc1 | 6.82
CC(=NNC(=S)N1CCCCC1)c1cccc(C)n1 | 15.6
COc1ccc2c3c(n(C)c2c1)[C@H](CO)N(C(=O)C1CC1)CC31CCN(Cc2cccc(F)c2)CC1 | 4.68
Cc1cc2[nH]c3c(c[n+](C)c4ccccc34)c2cc1C | 2.58

SMILES | AC35 [µM]
O=C1NC(=Nc2ccc(O)cc2)S/C1=C/c1ccco1 | 11.7
COC(=O)c1cc(C(=O)N2CCN(c3cccc(Cl)c3)CC2)cc([N+](=O)[O-])c1 | 14.1
Cc1nc(C)c(C(=O)NN=Cc2ccc(N(CCCl)CCCl)cc2)s1 | 11.8
Nc1ccn(C2OC(CO)C(O)C2O)c(=O)n1 (stereo not drawn) | 6.2
O=C(Cc1ccccc1)N1CC(=O)N2[C@H](CO)[C@@H](c3ccc(-c4ccccc4)cc3)[C@@H]2C1 | 18.7
COC(=O)c1ccc(S(=O)(=O)N2CCc3ccccc32)cc1 | 16.1
CC(=O)c1ccc(Nc2cc(C)nc3c(C)cc(C)cc23)cc1 | 7.71
C/C(=N\NC(=O)c1c(Cl)c(C)nn1C)c1ccc(NC(=O)C2CCC2)cc1 | 4.43
COc1cccc(S(=O)(=O)N(C)C[C@@H]2Oc3cc(C4=CCCC4)ccc3S(=O)(=O)N([C@H](C)CO)C[C@H]2C)c1 | 20.3
O=C(NCCN1C(=O)S/C(=C\c2ccc(OC(F)F)cc2)C1=O)c1cnccn1 | 10.5
CCCC(=O)Nc1ccc2c(c1)nc(CN1CCN(C(=O)OCC)CC1)n2CC | 18.9
COc1cc(C#Cc2ccc3cc(CCCO)oc(=O)c3c2)cc(OC)c1 | 6.25
Cc1noc(C)c1COc1ccc(C(=O)NNC(=O)c2ccccc2)cc1 | 12.2
Cc1ccc2[nH]c(C(=O)N/N=C/c3ccccc3O)c(C)c2c1 | 2.41
CO/N=C\CC(=O)Nc1ccc(Cl)cc1Cl | 16.1
CC(=O)Nc1cccc(-c2ccnc3c2CC(C)(C(=O)Nc2ccc4c(c2)OCO4)O3)c1 (stereo not drawn) | 17.4
CCCC(=O)Nc1nc2ccc(NC(=O)c3c(F)c(F)c(OC)c(F)c3F)cc2s1 | 7.54
O=C(N/N=C/c1cccs1)c1cc(C2CC2)nc2ccccc12 | 21.1
CCOC(=O)c1ccc(Nc2sc(C(=O)c3cccc([N+](=O)[O-])c3)c(N)c2C#N)cc1 | 6.7
COc1ccccc1N=C1SC(C(=O)Nc2cccc(Cl)c2Cl)C(N)=C1C(N)=O (stereo not drawn) | 18.4
Cc1ccc(C)c(CSc2nc3[nH]ncc3c(=O)[nH]2)c1 | 5.46
O=C1c2ccccc2C(=O)c2c1cccc2N(CCO)CCO | 16.7
O=C(N/N=C/c1c(O)ccc2ccccc12)c1ccc(Br)o1 | 1.18
Oc1c(Cl)cc(CN2CCOCC2)c2cccnc12 | 7.67
COc1cccc(/C=N/Nc2ncnc(Cl)c2N)c1O | 2.15
Cc1cc(C)c2nc(Cl)c(CN(Cc3ccco3)C(=O)Nc3ccccc3C)cc2c1 | 5.84

SMILES | AC35 [µM]
O=C1C=CCC(/C=C/c2ccccc2)O1 (stereo not drawn) | 19
CN(C)c1ccc(-[n+]2c(-c3ccccc3)cc(-c3ccccc3)cc2-c2ccccc2)cc1 | 3.01
CCOc1ccc2[nH]c(C(=O)N/N=C/c3ccc(OC)cc3)cc2c1 | 4.77
CN(C)CCCN(C(=O)c1ccco1)c1nc(-c2ccc(Cl)cc2)cs1 | 22.2
O=C(c1ccc(Br)cc1)c1cc([N+](=O)[O-])ccc1N1CCOCC1 | 3.19
CCc1c(C)nc2ncnn2c1NCCc1ccc(OC)cc1 | 11.5
CCCC(=O)NC(c1ccc(N(C)C)cc1)c1ccc2cccnc2c1O (stereo not drawn) | 1.18
O=C(Cc1ccc(Br)cc1)NCc1ccccc1 | 5.52
Cc1cc2c(cc1S(=O)(=O)Nc1ccc(F)cc1)n(C)c(=O)c(=O)n2C | 18.2
NCC(=O)NNC(=O)OCC1c2ccccc2-c2ccccc21 | 12.7
O=C(CCCl)Nc1nc2c(s1)CCc1ccccc1-2 | 20.6
CC1(C(=O)NCc2ccccc2)Cc2c(-c3ccc(C(N)=O)cc3)ccnc2O1 (stereo not drawn) | 13.8
CC/C=C/CC(=O)N[C@@H](c1ccccc1)[C@@H](O)C(=O)O[C@H]1C[C@@]2(O)[C@@H](OC(=O)c3ccccc3)C3[C@](C)(C(=O)[C@H](OC(C)=O)C(=C1C)C2(C)C)[C@@H](O)C[C@H]1OC[C@@]31OC(C)=O (stereo partly drawn) | 1.98
C[C@H]1CN([C@@H](C)CO)C(=O)Cc2cc(NC(=O)Nc3ccc(C(F)(F)F)cc3)ccc2O[C@H]1CN(C)S(=O)(=O)c1ccccc1 | 10.1
COc1ccccc1CNC(=O)Nc1nc(C(N)Cc2ccc(Cl)cc2)cs1 (stereo not drawn) | 9.79
COc1cc(C(=O)Nc2ccccc2C(=O)Nc2ccccn2)cc(OC)c1OC | 4.9
C=CCN1c2ccccc2[C@]23C[C@@H](C(=O)OC)N(C(=O)c4cccs4)C2=NC(C(=O)OC)=C(C(=O)OC)[C@H]13 | 19.1
CC(C)Cc1ccc(-c2cc3nc(NCc4cccc(Cl)c4)ccn3n2)cc1 | 11.1
COc1cccc(N2CCN(C(=O)c3ccc(CS(=O)c4ccc(C)cc4)o3)CC2)c1 (stereo not drawn) | 0.833
Cc1cc(C(=O)N/N=C/c2ccc(N(C)C)cc2)c2ccccc2n1 | 8.84
CNc1c2cccc(C)c2nc2c(C(=O)NCCN(C)C)cccc12 | 0.428
O=S(=O)(Cc1ccc(Cl)cc1Cl)c1ccc(Cl)cc1 | 11.3
Cc1nn2cc(-c3cccc(Cl)c3)cnc2c1Br | 11.1
CN1c2ccc(-c3ccc(F)cc3)cc2[C@H]2[C@H](CCN2S(=O)(=O)c2ccc(F)cc2)[C@@H]1CO | 20.9
COc1ccc2cc(CN(CC3CCCO3)C(=S)Nc3ccccc3)c(=O)[nH]c2c1 (stereo not drawn) | 13
